According to patent US8715672B2, “Treatment of diseases linked to pathological kinin formation” (CSL Behring GmbH, priority 2004, dated 2014):

Assays:
[1] = tested on: intrinsic coagulation pathway; test: aPTT of wildtype mice after infusion of corn trypsin inhibitor; assay type: in vivo, mouse; details: CTI 50 μg/g body weight, n=4
Experimental: (§1) Alternatively, to test the impact of small molecule FXII inhibitors, wildtype mice were infused with the FXII inhibitor corn trypsin inhibitor (CTI, 50 μg/g body weight) 5 min prior to FeCl3-induced injury in the carotic artery (Wang et al. (2005) J. Thromb. Heamost. 3: 695-702). […] In none of the animals tested (0/4) vessel occluding thrombi developed within 30 min following application of FeCl3.
Global and single coagulation parameters were determined with an automated blood coagulation system (BCS, Dade Behring) with Dade Behring reagents according to the protocols for human samples detailed by the manufacturer. Principles of BCS assay protocols are available from Dade Behring package inserts, which can be found on Dade Behring's web site (http://www.dadebehring.com). D-dimers werde measured with the ELISA from Asserachrorn (Roche). Peripheral blood counts were determines on the Sysmex XE 2100 according to standard protocols.

wildtype mice = test: FeCl3-induced injury in the carotid artery after infusion of corn trypsin inhibitor; assay type: in vivo, mouse
Experimental: as §1

corn trypsin inhibitor [CTI]
aPTT [1]: 62 ± 11 s | animals developing vessel occluding thrombi within 30 min following application of FeCl3 (wildtype mice; CTI 50 μg/g 5 min prior to injury, carotid artery): 0/4 | bleeding during the surgical procedure (wildtype mice; CTI 50 μg/g body weight): did not affect bleeding
